Molecules are shown by their SMILES. pIC50: −log10 of the molar value.

One may read the pIC50 as −log10 of the IC50, conventionally taken in molar units.

For one assay, the target named is human recombinant FAAH (Homo sapiens (Human), UniProt O00519). As to the kind of experiment: In vitro inhibition of FAAH activity (fluorescent inhibitor screening kit, AMC arachidonoyl amide). Type of assay: biochemical. The conditions noted are these: human recombinant FAAH; read-out: Inhibition on FAAH activity (IC50). The gist of the method:
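Fluorogenic kit assay: AMC arachidonoyl amide is cleaved by human recombinant FAAH, read at 340-360/450-465 nm. Percent inhibition versus non-treated control; IC50 values derived from multiple compound concentrations where tested.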

The target of the next assay is human recombinant MAGL (Homo sapiens (Human), UniProt Q99685). As to the kind of experiment: In vitro inhibition of MAGL activity (inhibitor screening kit, 4-nitrophenylacetate). Format: biochemical. The conditions noted are these: human recombinant MAGL. The gist of the method:
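Colorimetric kit assay: recombinant human MAGL hydrolyses 4-nitrophenylacetate to 4-nitrophenol, read by absorbance at 405-412 nm. Inhibition given as percentage of signal in treated versus untreated MAGL control.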

human recombinant FAAH, sequence (O00519 whole entry): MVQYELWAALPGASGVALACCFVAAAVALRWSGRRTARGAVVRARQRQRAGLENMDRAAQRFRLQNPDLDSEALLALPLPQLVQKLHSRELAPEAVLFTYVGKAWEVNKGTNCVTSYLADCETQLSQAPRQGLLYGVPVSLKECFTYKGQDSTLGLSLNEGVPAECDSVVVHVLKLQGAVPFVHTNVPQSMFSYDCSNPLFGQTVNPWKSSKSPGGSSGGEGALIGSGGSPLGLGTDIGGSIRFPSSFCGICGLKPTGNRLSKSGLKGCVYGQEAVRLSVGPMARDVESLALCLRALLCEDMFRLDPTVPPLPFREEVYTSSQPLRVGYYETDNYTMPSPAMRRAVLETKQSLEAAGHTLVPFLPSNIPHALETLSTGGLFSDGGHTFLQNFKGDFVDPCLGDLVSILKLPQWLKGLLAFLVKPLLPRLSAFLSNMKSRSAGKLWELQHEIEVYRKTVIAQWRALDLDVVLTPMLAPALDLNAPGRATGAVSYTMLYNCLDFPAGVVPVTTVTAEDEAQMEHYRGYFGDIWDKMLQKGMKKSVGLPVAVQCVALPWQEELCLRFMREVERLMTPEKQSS
human recombinant MAGL, sequence (Q99685 whole entry): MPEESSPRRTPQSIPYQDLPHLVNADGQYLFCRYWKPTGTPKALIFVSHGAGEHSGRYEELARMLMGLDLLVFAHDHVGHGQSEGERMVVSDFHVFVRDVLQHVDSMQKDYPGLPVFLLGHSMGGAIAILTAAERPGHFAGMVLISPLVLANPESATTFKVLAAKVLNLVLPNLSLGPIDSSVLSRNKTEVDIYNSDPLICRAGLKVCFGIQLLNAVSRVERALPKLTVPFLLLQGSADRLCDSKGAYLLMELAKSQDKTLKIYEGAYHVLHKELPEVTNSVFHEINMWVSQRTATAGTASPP

With `CCCCCCCCNC(=O)Oc1cccc(-c2cncc(-c3nccs3)c2)c1` [Example 115], the figures for the pIC50 at human recombinant FAAH and on human recombinant MAGL were 8.00 to 9.00 and ~5.00, respectively.
Take `Cc1ccc(-c2cncc(-c3ncco3)c2)cc1OC(=O)NC1CCC(C)CC1` (stereo not drawn) [Example 96, 2-methyl-5-(5-(oxazol-2-yl)pyridin-3-yl)phenyl (4-methylcyclohexyl)carbamate]: the pIC50 is < 6.00 on human recombinant FAAH and < 5.00 on human recombinant MAGL.
Take `COc1ccc(OC(=O)NC2CCC(C)CC2)cc1-c1cncc(-c2nnco2)c1` (stereo not drawn) [Example 171, 3-(5-(1,3,4-oxadiazol-2-yl)pyridin-3-yl)-4-methoxyphenyl (4-methylcyclohexyl)carbamate]: the pIC50 on human recombinant FAAH was 6.00 to 7.00; on human recombinant MAGL, < 5.00.
Turning to `CCCCCCCNC(=O)Oc1cccc(-c2cncc(C(=O)OCC)c2)c1` [Example 2, ethyl 5-(3-((heptylcarbamoyl)oxy)phenyl)nicotinate], the pIC50 on human recombinant FAAH was 7.00 to 8.00; on human recombinant MAGL, 5.00 to 6.00.
On the same counts, the results for `CC1CCC(NC(=O)Oc2ccc(F)c(-c3cncc(-c4ncco4)c3)c2)CC1` (stereo not drawn) [Example 86, 4-fluoro-3-(5-(oxazol-2-yl)pyridin-3-yl)phenyl (4-methylcyclohexyl)carbamate] are 7.00 to 8.00 and < 5.00.
For the compound `CCCCCCCCNC(=O)Oc1cccc(-c2cncc(-c3ccno3)c2)c1` [Example 105, 3-(5-(isoxazol-5-yl)pyridin-3-yl)phenyl octylcarbamate], the pIC50 at human recombinant FAAH was 8.00 to 9.00; at human recombinant MAGL, < 5.00.
As to `Cc1cc(OC(=O)NCc2ccccc2)cc(-c2cncc(-c3ncco3)c2)c1` [Example 100, 3-methyl-5-(5-(oxazol-2-yl)pyridin-3-yl)phenyl benzylcarbamate], the figures for the pIC50 at human recombinant FAAH and on human recombinant MAGL were < 6.00 and < 5.00, respectively.
In the case of `CN(C)c1ccc(OC(=O)NC2CCCCCC2)cc1-c1cncc(-c2nnco2)c1` [Example 185, 3-(5-(1,3,4-oxadiazol-2-yl)pyridin-3-yl)-4-(dimethylamino)phenyl cycloheptylcarbamate], the pIC50 at human recombinant FAAH is 6.00 to 7.00; on human recombinant MAGL it was < 5.00.
For the compound `COc1ccc(OC(=O)NC2CCCCCC2)cc1-c1cncc(-c2ncn[nH]2)c1` [Example 237, 3-(5-(1H-1,2,4-triazol-5-yl)pyridin-3-yl)-4-methoxyphenyl cycloheptylcarbamate], the pIC50 was 6.00 to 7.00 at human recombinant FAAH and < 5.00 at human recombinant MAGL.
`COc1ccc(OC(=O)NCC2CCCCC2)cc1-c1cncc(-c2nnco2)c1` [Example 168, 3-(5-(1,3,4-oxadiazol-2-yl)pyridin-3-yl)-4-methoxyphenyl (cyclohexylmethyl)carbamate]: the negative-log IC50 (pIC50) at human recombinant FAAH was 6.00 to 7.00; on human recombinant MAGL, < 5.00.
For `O=C(NC1CCCCCC1)Oc1cccc(-c2cncc(-c3nncs3)c2)c1` [Example 212, 3-(5-(1,3,4-thiadiazol-2-yl)pyridin-3-yl)phenyl cycloheptylcarbamate], the pIC50 at human recombinant FAAH was 7.00 to 8.00; on human recombinant MAGL, < 5.00.
On the same counts, the results for `O=C(NC1CCCCC1)Oc1ccc(OC(F)(F)F)c(-c2cncc(-c3ncco3)c2)c1` [Example 89, 3-(5-(oxazol-2-yl)pyridin-3-yl)-4-(trifluoromethoxy)phenyl cyclohexylcarbamate] are 6.00 to 7.00 and < 5.00.
In the case of `CCCCCCCNC(=O)Oc1cccc(-c2cncc(-c3ncco3)c2)c1` [Example 72, 3-(5-(oxazol-2-yl)pyridin-3-yl)phenyl heptylcarbamate], the pIC50 on human recombinant FAAH was 8.00 to 9.00; at human recombinant MAGL it was < 6.00.
As to `O=C(NC1CCCCC1)Oc1cccc(-c2cncc(C(F)(F)F)c2)c1` [Example 33, 3-(5-(trifluoromethyl)pyridin-3-yl)phenyl cyclohexylcarbamate], the pIC50 at human recombinant FAAH is 6.00 to 7.00; at human recombinant MAGL it was < 5.00.
Consider `COc1ccc(OC(=O)NC2CCC(C)CC2)cc1-c1cncc(-c2ncco2)c1` (stereo not drawn) [Example 82, 4-methoxy-3-(5-(oxazol-2-yl)pyridin-3-yl)phenyl (4-methylcyclohexyl)carbamate], for which the results for the pIC50 at human recombinant FAAH and on human recombinant MAGL were 6.00 to 7.00 and < 5.00, respectively.
For the compound `CC1CCCCN1C(=O)Oc1cccc(-c2cncc(-c3nnco3)c2)c1` (stereo not drawn) [Example 143, 3-(5-(1,3,4-oxadiazol-2-yl)pyridin-3-yl)phenyl 2-methylpiperidine-1-carboxylate], the values for the pIC50 at human recombinant FAAH and at human recombinant MAGL were ~5.00 and < 5.00, respectively.
As to `O=C(NC1CCCC1)Oc1cccc(-c2cc(-c3nnco3)ccn2)c1` [Example 259, 3-(4-(1,3,4-oxadiazol-2-yl)pyridin-2-yl)phenyl cyclopentylcarbamate], the pIC50 at human recombinant FAAH is 6.00 to 7.00; at human recombinant MAGL, < 5.00.
For the compound `CN(C)c1ccc(OC(=O)NCC2CCCCC2)cc1-c1cncc(-c2nnco2)c1` [Example 181, 3-(5-(1,3,4-oxadiazol-2-yl)pyridin-3-yl)-4-(dimethylamino)phenyl (cyclohexylmethyl)carbamate], the pIC50 on human recombinant FAAH was ~6.00; at human recombinant MAGL, < 5.00.
With `O=C(NC1CCCC1)Oc1cccc(-c2cncc(-c3nnco3)c2)c1` [Example 138, 3-(5-(1,3,4-oxadiazol-2-yl)pyridin-3-yl)phenyl cyclopentylcarbamate], the pIC50 at human recombinant FAAH is 7.00 to 8.00; at human recombinant MAGL it was < 4.30.
On the same counts, the results for `CC1CCC(NC(=O)Oc2ccc(OC(F)(F)F)c(-c3cncc(-c4ncco4)c3)c2)CC1` (stereo not drawn) [Example 90, 3-(5-(oxazol-2-yl)pyridin-3-yl)-4-(trifluoromethoxy)phenyl (4-methylcyclohexyl)carbamate] are 6.00 to 7.00 and < 6.00.
In the case of `CCCCCCCCNC(=O)Oc1ccc(OC)c(-c2cncc(-c3nccs3)c2)c1` [Example 121, 4-methoxy-3-(5-(thiazol-2-yl)pyridin-3-yl)phenyl octylcarbamate], the results for the pIC50 on human recombinant FAAH and on human recombinant MAGL were 7.00 to 8.00 and ~5.00, respectively.
In the case of `COc1ccc(OC(=O)NC2CCCCC2)cc1-c1cncc(-c2ccno2)c1` [Example 113, 3-(5-(isoxazol-5-yl)pyridin-3-yl)-4-methoxyphenyl cyclohexylcarbamate], the pIC50 on human recombinant FAAH was ~7.00; at human recombinant MAGL, < 5.00.
With `CCCCCCCCNC(=O)Oc1cc(OC)cc(-c2cncc(-c3nnco3)c2)c1` [Example 174, 3-(5-(1,3,4-oxadiazol-2-yl)pyridin-3-yl)-5-methoxyphenyl octylcarbamate], the pIC50 on human recombinant FAAH was 8.00 to 9.00; on human recombinant MAGL it was ~5.00.
Regarding `O=C(NC1CCCCC1)Oc1cc(F)cc(-c2cncc(-c3nnco3)c2)c1` [Example 197, 3-(5-(1,3,4-oxadiazol-2-yl)pyridin-3-yl)-5-fluorophenyl cyclohexylcarbamate], the pIC50 is 6.00 to 7.00 at human recombinant FAAH and < 5.00 at human recombinant MAGL.
For the compound `O=C(NC1CCCCC1)Oc1cccc(-c2cncc(-c3ncco3)c2)c1` [Example 76, 3-(5-(oxazol-2-yl)pyridin-3-yl)phenyl cyclohexylcarbamate], the pIC50 was 6.00 to 8.00 on human recombinant FAAH and 5.00 to 6.00 on human recombinant MAGL.
Consider `O=C(NC1CCCCC1)Oc1cccc(-c2cncc(-c3ccno3)c2)c1` [Example 107, 3-(5-(isoxazol-5-yl)pyridin-3-yl)phenyl cyclohexylcarbamate], for which the pIC50 on human recombinant FAAH was 7.00 to 8.00; on human recombinant MAGL, < 5.00.
For the compound `COc1ccc(OC(=O)NC2CCCC2)cc1-c1cncc(-c2ncn[nH]2)c1` [Example 235, 3-(5-(1H-1,2,4-triazol-5-yl)pyridin-3-yl)-4-methoxyphenyl cyclopentylcarbamate], the pIC50 at human recombinant FAAH was 6.00 to 7.00; on human recombinant MAGL, < 5.00.

Source of the values: patent US20250129027A1 (APOGEE PHARMACEUTICALS, INC., priority 2023, published 2025).
